Test results published in ChEMBL document CHEMBL3991601, “The target landscape of clinical kinase drugs” (Science, 2017).
The source made the active and inactive calls.

Key:
Activated CDC42 kinase 1 = Activated CDC42 kinase 1 (Homo sapiens, UniProt Q07912)
[1] = target: T1, Serine/threonine-protein kinase Nek2 (Homo sapiens, UniProt P51955)
T1 sequence (P51955 whole entry): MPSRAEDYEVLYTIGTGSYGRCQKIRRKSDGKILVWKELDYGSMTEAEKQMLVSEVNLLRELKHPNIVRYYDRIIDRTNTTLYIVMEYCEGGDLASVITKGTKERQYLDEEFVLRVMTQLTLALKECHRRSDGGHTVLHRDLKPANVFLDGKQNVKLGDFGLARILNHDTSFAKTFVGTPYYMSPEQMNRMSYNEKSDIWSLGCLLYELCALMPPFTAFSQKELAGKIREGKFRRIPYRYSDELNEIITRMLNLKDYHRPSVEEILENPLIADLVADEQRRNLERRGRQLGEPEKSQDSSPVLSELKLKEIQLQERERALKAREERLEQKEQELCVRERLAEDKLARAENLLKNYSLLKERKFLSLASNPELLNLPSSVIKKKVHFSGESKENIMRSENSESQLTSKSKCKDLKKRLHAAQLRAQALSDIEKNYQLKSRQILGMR

[2] = target: Mitotic checkpoint serine/threonine-protein kinase BUB1 (Homo sapiens, UniProt O43683)
Chain of Mitotic checkpoint serine/threonine-protein kinase BUB1 (O43683 whole entry): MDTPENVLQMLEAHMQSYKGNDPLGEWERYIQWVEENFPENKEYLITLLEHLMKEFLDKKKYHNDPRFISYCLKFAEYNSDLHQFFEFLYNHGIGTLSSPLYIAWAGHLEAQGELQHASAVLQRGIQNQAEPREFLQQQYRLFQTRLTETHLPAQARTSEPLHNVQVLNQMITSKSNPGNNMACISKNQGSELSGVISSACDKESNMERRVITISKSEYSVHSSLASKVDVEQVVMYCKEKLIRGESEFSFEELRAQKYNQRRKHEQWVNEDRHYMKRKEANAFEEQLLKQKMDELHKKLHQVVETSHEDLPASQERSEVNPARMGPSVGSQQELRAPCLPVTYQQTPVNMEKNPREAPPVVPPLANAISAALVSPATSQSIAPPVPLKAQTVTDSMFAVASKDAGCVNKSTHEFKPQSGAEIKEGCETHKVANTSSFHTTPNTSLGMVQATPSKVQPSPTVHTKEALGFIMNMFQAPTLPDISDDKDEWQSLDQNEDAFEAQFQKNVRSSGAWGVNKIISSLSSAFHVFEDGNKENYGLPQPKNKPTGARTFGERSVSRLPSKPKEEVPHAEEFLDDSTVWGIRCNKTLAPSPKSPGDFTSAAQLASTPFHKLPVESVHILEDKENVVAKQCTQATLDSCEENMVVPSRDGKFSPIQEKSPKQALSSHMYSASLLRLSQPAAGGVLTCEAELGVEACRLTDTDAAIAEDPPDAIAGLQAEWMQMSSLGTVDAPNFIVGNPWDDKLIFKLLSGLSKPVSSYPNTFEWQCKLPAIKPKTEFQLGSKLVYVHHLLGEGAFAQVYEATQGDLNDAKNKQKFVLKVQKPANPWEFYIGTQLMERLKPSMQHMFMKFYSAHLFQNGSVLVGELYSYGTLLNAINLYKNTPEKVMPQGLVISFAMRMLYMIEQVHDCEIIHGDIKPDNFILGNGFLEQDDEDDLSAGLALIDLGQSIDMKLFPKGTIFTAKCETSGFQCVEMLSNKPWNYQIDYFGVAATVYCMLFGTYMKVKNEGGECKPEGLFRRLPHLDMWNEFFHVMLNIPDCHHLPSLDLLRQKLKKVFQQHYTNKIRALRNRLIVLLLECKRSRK

[3] = target: Proto-oncogene tyrosine-protein kinase Src (Homo sapiens, UniProt P12931)
Chain of Proto-oncogene tyrosine-protein kinase Src (P12931 2-536 limits assumed): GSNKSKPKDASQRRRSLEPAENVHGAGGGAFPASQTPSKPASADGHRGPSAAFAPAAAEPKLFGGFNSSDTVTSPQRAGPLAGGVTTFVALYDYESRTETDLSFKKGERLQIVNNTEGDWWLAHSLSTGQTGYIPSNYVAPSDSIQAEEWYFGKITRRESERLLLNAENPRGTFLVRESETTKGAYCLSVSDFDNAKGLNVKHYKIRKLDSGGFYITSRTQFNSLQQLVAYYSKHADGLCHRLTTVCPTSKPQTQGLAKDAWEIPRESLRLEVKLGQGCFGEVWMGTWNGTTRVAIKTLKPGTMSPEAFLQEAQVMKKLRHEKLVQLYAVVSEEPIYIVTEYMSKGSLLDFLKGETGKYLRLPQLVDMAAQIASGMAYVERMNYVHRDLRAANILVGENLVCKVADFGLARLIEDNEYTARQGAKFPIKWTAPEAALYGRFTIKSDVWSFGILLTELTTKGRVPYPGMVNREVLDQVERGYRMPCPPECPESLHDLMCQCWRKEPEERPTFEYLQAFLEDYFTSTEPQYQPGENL

[4] = target: T2, Ras-related protein Rab-27A (Homo sapiens, UniProt P51159)
T2 sequence (P51159 whole entry): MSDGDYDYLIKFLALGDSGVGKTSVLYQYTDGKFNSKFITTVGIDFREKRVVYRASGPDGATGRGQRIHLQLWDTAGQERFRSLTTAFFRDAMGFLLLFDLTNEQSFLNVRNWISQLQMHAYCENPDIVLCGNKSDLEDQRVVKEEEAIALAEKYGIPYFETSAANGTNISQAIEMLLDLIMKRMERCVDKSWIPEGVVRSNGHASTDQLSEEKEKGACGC

Midasin = Midasin (Homo sapiens, UniProt Q9NU22)
[5] = target: Putative heat shock protein HSP 90-beta 2 (Homo sapiens, UniProt Q58FF8)
Chain of Putative heat shock protein HSP 90-beta 2 (Q58FF8 whole entry): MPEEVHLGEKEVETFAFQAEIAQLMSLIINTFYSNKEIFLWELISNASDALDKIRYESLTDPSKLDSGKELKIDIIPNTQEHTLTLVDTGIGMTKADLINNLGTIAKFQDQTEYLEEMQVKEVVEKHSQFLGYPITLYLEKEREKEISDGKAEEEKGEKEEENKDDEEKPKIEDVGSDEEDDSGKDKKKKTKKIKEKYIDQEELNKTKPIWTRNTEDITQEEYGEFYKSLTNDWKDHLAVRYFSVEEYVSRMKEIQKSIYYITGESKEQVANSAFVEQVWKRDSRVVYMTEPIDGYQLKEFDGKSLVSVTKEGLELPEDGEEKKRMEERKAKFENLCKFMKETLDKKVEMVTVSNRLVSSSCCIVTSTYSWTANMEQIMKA

[6] = target: T3, DNA replication licensing factor MCM4 (Homo sapiens, UniProt P33991)
T3 sequence (P33991 whole entry): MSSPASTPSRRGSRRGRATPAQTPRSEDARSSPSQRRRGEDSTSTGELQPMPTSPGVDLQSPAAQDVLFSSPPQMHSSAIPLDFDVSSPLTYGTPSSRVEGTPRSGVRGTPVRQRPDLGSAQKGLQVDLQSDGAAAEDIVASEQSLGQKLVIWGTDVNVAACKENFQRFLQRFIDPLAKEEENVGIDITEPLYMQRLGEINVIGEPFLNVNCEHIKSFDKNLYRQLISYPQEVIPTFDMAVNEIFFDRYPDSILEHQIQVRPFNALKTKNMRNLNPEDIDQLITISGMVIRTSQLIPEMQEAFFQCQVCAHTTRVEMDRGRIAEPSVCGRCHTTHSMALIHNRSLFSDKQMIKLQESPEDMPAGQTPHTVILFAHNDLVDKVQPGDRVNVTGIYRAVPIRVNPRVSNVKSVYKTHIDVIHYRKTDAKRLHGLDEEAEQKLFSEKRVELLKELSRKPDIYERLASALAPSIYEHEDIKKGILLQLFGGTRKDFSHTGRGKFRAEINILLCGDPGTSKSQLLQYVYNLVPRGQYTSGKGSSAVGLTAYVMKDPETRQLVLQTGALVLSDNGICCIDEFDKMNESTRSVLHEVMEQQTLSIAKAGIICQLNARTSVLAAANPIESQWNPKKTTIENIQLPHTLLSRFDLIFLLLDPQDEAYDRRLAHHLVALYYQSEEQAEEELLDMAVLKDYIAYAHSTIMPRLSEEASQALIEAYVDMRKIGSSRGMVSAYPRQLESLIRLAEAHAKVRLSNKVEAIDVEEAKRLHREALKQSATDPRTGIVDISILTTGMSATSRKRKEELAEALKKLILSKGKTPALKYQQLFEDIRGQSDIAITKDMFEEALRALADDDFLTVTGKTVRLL

[7] = target: T4, Signal recognition particle receptor subunit alpha (Homo sapiens, UniProt P08240)
T4 sequence (P08240 whole entry): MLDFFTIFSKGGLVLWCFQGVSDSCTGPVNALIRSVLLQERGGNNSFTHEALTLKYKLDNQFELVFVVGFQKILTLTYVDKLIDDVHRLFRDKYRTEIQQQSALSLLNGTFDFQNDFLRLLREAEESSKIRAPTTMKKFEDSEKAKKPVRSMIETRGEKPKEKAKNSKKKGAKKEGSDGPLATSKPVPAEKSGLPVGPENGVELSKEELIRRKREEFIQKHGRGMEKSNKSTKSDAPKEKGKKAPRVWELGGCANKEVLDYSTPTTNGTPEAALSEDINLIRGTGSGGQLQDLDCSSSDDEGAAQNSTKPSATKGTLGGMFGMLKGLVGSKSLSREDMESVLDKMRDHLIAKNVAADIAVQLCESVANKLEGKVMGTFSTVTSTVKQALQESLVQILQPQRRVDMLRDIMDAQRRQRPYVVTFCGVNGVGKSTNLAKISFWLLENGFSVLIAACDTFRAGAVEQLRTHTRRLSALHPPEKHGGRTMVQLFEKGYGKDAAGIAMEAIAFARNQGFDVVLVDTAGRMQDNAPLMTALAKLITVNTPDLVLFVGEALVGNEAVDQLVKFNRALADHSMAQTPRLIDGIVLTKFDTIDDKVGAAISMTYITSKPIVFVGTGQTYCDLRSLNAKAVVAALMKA

[8] = target: T5, Probable ATP-dependent RNA helicase DDX6 (Homo sapiens, UniProt P26196)
T5 sequence (P26196 whole entry): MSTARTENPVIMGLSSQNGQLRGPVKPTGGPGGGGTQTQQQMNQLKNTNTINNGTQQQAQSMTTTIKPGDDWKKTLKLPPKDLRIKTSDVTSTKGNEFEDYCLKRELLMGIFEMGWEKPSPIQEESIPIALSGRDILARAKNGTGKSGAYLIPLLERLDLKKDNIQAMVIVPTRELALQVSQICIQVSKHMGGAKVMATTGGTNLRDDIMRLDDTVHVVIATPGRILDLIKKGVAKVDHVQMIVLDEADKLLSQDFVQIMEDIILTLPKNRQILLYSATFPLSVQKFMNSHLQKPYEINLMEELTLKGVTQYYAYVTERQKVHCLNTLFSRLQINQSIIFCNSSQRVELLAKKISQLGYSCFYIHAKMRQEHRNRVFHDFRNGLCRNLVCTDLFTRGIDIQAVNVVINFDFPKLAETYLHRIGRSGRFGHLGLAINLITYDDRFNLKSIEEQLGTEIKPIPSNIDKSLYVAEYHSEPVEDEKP
Note: in the data inactive means no Kd found up to 30 µM.

Chain of Activated CDC42 kinase 1 (Q07912 whole entry): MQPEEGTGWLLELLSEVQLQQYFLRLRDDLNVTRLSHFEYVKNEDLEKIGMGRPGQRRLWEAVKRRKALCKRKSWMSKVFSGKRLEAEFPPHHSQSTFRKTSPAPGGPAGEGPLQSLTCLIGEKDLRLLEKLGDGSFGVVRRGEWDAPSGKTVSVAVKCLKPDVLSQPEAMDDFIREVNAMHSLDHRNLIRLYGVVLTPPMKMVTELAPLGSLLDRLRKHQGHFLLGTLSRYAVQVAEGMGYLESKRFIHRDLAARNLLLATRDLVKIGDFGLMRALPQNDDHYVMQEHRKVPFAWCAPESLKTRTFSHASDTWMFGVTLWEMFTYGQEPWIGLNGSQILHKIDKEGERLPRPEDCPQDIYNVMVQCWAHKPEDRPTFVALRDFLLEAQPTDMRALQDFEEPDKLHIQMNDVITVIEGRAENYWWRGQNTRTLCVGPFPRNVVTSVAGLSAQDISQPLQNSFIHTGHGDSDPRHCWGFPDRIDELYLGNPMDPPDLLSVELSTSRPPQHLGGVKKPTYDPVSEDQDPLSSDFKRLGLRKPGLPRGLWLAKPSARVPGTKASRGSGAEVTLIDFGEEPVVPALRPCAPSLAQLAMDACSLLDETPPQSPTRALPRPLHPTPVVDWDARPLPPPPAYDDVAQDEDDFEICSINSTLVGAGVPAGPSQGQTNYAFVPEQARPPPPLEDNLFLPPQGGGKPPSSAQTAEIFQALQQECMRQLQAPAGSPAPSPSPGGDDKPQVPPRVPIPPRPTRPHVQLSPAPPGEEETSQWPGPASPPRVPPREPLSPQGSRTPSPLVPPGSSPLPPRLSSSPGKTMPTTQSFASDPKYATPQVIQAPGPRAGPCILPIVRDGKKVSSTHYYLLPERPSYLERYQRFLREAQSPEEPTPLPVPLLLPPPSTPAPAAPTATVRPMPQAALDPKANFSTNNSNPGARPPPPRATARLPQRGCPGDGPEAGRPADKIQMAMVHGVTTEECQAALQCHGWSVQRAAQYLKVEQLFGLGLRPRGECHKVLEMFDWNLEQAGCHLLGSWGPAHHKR

SMILES	Kd (Activated CDC42 kinase 1)	Kd [1]	Kd [2]	Kd [3]	Kd [4]	Kd (Midasin)	Kd [5]	Kd [6]	Kd [7]	Kd [8]
COc1cccc(Nc2ncnn3ccc(CN4CC[C@@H](N)[C@H](O)C4)c23)c1 [BMS-690514]	0.208 µM (active)	> 30 µM (inactive)	> 30 µM (inactive)	1.15 µM (active)	> 30 µM (inactive)	> 30 µM (inactive)	> 30 µM (inactive)	> 30 µM (inactive)	–	–
CN(c1ncccc1CNc1nc(Nc2ccc3c(c2)CC(=O)N3)ncc1C(F)(F)F)S(C)(=O)=O [PF-00562271]	–	–	> 30 µM (inactive)	–	> 30 µM (inactive)	> 30 µM (inactive)	> 30 µM (inactive)	> 30 µM (inactive)	> 30 µM (inactive)	> 30 µM (inactive)
C=CCn1c(=O)c2cnc(Nc3ccc(N4CCN(C)CC4)cc3)nc2n1-c1cccc(C(C)(C)O)n1 [ADAVOSERTIB]	–	–	> 30 µM (inactive)	> 30 µM (inactive)	> 30 µM (inactive)	> 30 µM (inactive)	> 30 µM (inactive)	> 30 µM (inactive)	> 30 µM (inactive)	> 30 µM (inactive)
COc1cc2c(Oc3ccc4[nH]c(C)cc4c3F)ncnc2cc1OCCCN1CCCC1 [CEDIRANIB]	–	–	> 30 µM (inactive)	> 30 µM (inactive)	> 30 µM (inactive)	> 30 µM (inactive)	> 30 µM (inactive)	> 30 µM (inactive)	> 30 µM (inactive)	> 30 µM (inactive)
CC1(C)CNc2cc(NC(=O)c3cccnc3NCc3ccncc3)ccc21 [MOTESANIB]	–	–	> 30 µM (inactive)	–	> 30 µM (inactive)	> 30 µM (inactive)	> 30 µM (inactive)	> 30 µM (inactive)	> 30 µM (inactive)	> 30 µM (inactive)
Cc1c(NC(=O)OC[C@@H]2COCCN2)cn2ncnc(Nc3ccc4c(cnn4Cc4cccc(F)c4)c3)c12 [AC-480]	> 30 µM (inactive)	> 30 µM (inactive)	> 30 µM (inactive)	> 30 µM (inactive)	> 30 µM (inactive)	> 30 µM (inactive)	> 30 µM (inactive)	> 30 µM (inactive)	–	> 30 µM (inactive)
C=CCN(/C=C1/C(=O)O[C@H](COC)[C@@]2(C)C1=C(O)C(=O)C1=C2[C@H](OC(C)=O)C[C@]2(C)C(=O)CC[C@@H]12)CC=C [SONOLISIB]	> 30 µM (inactive)	> 30 µM (inactive)	–	> 30 µM (inactive)	–	> 30 µM (inactive)	> 30 µM (inactive)	–	–	–
CN(C)C/C=C/C(=O)Nc1cc2c(Nc3ccc(F)c(Cl)c3)ncnc2cc1O[C@H]1CCOC1 [AFATINIB]	–	–	> 30 µM (inactive)	–	> 30 µM (inactive)	> 30 µM (inactive)	> 30 µM (inactive)	> 30 µM (inactive)	> 30 µM (inactive)	> 30 µM (inactive)
Cn1cnc2c(F)c(Nc3ccc(Br)cc3Cl)c(C(=O)NOCCO)cc21 [SELUMETINIB]	–	–	> 30 µM (inactive)	–	> 30 µM (inactive)	> 30 µM (inactive)	> 30 µM (inactive)	> 30 µM (inactive)	> 30 µM (inactive)	> 30 µM (inactive)
Cn1c(=O)n(-c2ccc(C(C)(C)C#N)cc2)c2c3cc(-c4cnc5ccccc5c4)ccc3ncc21 [DACTOLISIB]	–	–	> 30 µM (inactive)	> 30 µM (inactive)	> 30 µM (inactive)	> 30 µM (inactive)	> 30 µM (inactive)	> 30 µM (inactive)	> 30 µM (inactive)	> 30 µM (inactive)
COc1cc2c(N3CCN(C(=O)Nc4ccc(OC(C)C)cc4)CC3)ncnc2cc1OCCCN1CCCCC1 [TANDUTINIB]	–	–	> 30 µM (inactive)	–	> 30 µM (inactive)	> 30 µM (inactive)	> 30 µM (inactive)	> 30 µM (inactive)	> 30 µM (inactive)	> 30 µM (inactive)
O=S(=O)(c1cccc2cnccc12)N1CCCNCC1 [FASUDIL]	–	–	> 30 µM (inactive)	–	> 30 µM (inactive)	> 30 µM (inactive)	> 30 µM (inactive)	> 30 µM (inactive)	> 30 µM (inactive)	> 30 µM (inactive)
CCN(CCCOc1ccc2c(Nc3cc(CC(=O)Nc4cccc(F)c4)n[nH]3)ncnc2c1)CCOP(=O)(O)O [BARASERTIB]	–	–	–	> 30 µM (inactive)	–	> 30 µM (inactive)	> 30 µM (inactive)	> 30 µM (inactive)	–	> 30 µM (inactive)
C[C@@]1(C(=O)Nc2ccc(F)nc2)CCCN1c1nc(Nc2cc(C3CC3)n[nH]2)c2cccn2n1 [BMS-754807]	–	–	–	–	> 30 µM (inactive)	> 30 µM (inactive)	> 30 µM (inactive)	> 30 µM (inactive)	> 30 µM (inactive)	> 30 µM (inactive)
CC(C)CC(=O)Nc1[nH]nc2c1CN(C(=O)C1CCN(C)CC1)C2(C)C [PHA-793887]	> 30 µM (inactive)	–	> 30 µM (inactive)	> 30 µM (inactive)	> 30 µM (inactive)	> 30 µM (inactive)	> 30 µM (inactive)	> 30 µM (inactive)	–	> 30 µM (inactive)
C[C@]1(O)C[C@@H](c2nc(-c3ccc4ccc(-c5ccccc5)nc4c3)c3c(N)nccn32)C1 [LINSITINIB]	> 30 µM (inactive)	–	> 30 µM (inactive)	–	> 30 µM (inactive)	> 30 µM (inactive)	> 30 µM (inactive)	> 30 µM (inactive)	> 30 µM (inactive)	> 30 µM (inactive)
